Drawing on BindingDB's records for doi:10.7270/Q2KK9971 (Nmmlsc, 2009), this text covers EC50 for 47 compounds.

The experiment deals with T1, GTPase KRas [1-37] (Homo sapiens, UniProt G3V5T7).
T1 construct: 1-37
Description: inhibition of fluorescent GTP binding to wild-type Ras – biochemical, pyrazoline analogs, multiplex bead flow cytometry, SAR follow-up (AID 2047).

The mark [1] stands for this setting: inactive by the depositor's call.

Molecules are shown by their SMILES.

T1 sequence (G3V5T7 whole entry): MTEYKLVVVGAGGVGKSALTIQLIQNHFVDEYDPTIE

One may read the EC50 as the concentration giving half of the maximal effect. The low end stands for an effect from little substance, the high end for a need for much substance. The compound `Cc1ccccc1N1N=C(c2ccccc2)CC1c1ccc(N(C)C)cc1` (configuration not stated) [N,N-dimethyl-4-[2-(2-methylphenyl)-5-phenyl-3,4-dihydropyrazol-3-yl]aniline] had an EC50 above 30 µM.

Consider `COc1ccc(C2CC(c3ccccc3)=NN2c2ccc(Cl)c(C(=O)O)c2)cc1OC` (configuration not stated) [2-chloro-5-[3-(3,4-dimethoxyphenyl)-5-phenyl-3,4-dihydropyrazol-2-yl]benzoic acid], for which the EC50 is above 30 µM. For `NS(=O)(=O)c1ccc(N2N=C(c3ccc(Br)cc3)CC2c2ccc(F)cc2)cc1` (configuration not stated) [4-[5-(4-bromophenyl)-3-(4-fluorophenyl)-3,4-dihydropyrazol-2-yl]benzenesulfonamide], the concentration for a half-maximal effect (EC50) was above 30 µM.

Take `COc1ccc(C2CC(c3cccc(OC)c3)=NN2c2ccc(S(N)(=O)=O)cc2)cc1` (configuration not stated) [4-[5-(3-methoxyphenyl)-3-(4-methoxyphenyl)-3,4-dihydropyrazol-2-yl]benzenesulfonamide]: the EC50 was above 30 µM. The same measure, in the same setting: the figure for `COc1ccc(C2CC(c3cccc(Cl)c3)=NN2c2ccc(S(N)(=O)=O)cc2)cc1` (configuration not stated) [UNM-0000306134] is above 30 µM; for `COc1ccc(C2CC(c3ccccc3F)=NN2c2ccc(S(N)(=O)=O)cc2)cc1` (configuration not stated) [UNM-0000306110] it is above 30 µM. Compound `NS(=O)(=O)c1ccc(N2N=C(c3ccc(Cl)cc3)CC2c2ccccc2)cc1` (configuration not stated) registered an EC50 under setting [1] of 0.096 µM. With `CCc1ccc(C2=NN(c3ccc(S(N)(=O)=O)cc3)C(c3ccc(F)cc3)C2)cc1` (configuration not stated), the EC50 was above 30 µM. Still for that read-out and setting: the figure for `CN(C)c1ccc(C2C[C-](c3ccccc3)N=[N+]2c2ccc([N+](=O)[O-])cc2)cc1` (configuration not stated) is above 30 µM; for `NS(=O)(=O)c1ccc(N2N=C(c3ccccc3)CC2c2ccccc2)cc1` (configuration not stated) [4-(3,5-diphenyl-3,4-dihydropyrazol-2-yl)benzenesulfonamide] it is above 30 µM. `COc1ccc(C2CC(c3ccc(Cl)cc3)=NN2c2ccccc2)cc1OC` (configuration not stated) [UNM-0000305858] registered an EC50 under setting [1] of 0.079 µM. Compound `COc1ccc(C2CC(c3ccccc3OC)=NN2c2ccc(S(N)(=O)=O)cc2)cc1` (configuration not stated) came in with an EC50 above 30 µM. The same measure, in the same setting: the figure for `COc1ccc(C2CC(C(C)(C)C)=NN2c2ccc(S(N)(=O)=O)cc2)cc1` (configuration not stated) [KUC103450N] is above 30 µM; for `Brc1ccc(N2N=C(c3ccccc3)CC2c2ccccc2)cc1` (configuration not stated) it is above 30 µM; for `COc1ccc(C2CC(c3ccccc3)=NN2c2ccc(C(N)=O)cc2)cc1` (configuration not stated) [UNM-0000305870] it is above 30 µM.

For `COc1ccc(C2CC(c3ccsc3)=NN2c2ccc(S(N)(=O)=O)cc2)cc1` (configuration not stated) [4-[3-(4-methoxyphenyl)-5-thiophen-3-yl-3,4-dihydropyrazol-2-yl]benzenesulfonamide], the EC50 is above 30 µM.

The compound `O=[N+]([O-])c1ccc([N+]2=N[C-](c3ccccc3)CC2c2ccccc2)cc1` (configuration not stated) registered an EC50 above 30 µM.

With `COc1ccc(C2=NN(c3ccccc3F)C(c3ccc(F)cc3)C2)cc1` (configuration not stated) [UNM-0000305860], under setting [1], the EC50 was found to be 13.5 µM.

Turning to `COc1ccc(C2CC(c3ccc(C)cc3)=NN2c2ccc(S(N)(=O)=O)cc2)cc1` (configuration not stated), the EC50 is above 30 µM.

`Cc1ccccc1C1CC(c2ccccc2)=NN1c1ccc(S(N)(=O)=O)cc1` (configuration not stated) [UNM-0000306148] came in with an EC50 above 30 µM.

`COc1ccc(C2CC(c3ccccc3)=NN2c2ccc(C(=O)O)cc2)cc1` (configuration not stated) [UNM-0000306085] showed an EC50 above 30 µM. On the same count and under the same terms, the figure for `COc1ccccc1C1CC(c2ccccc2)=NN1c1ccccc1` (configuration not stated) is above 30 µM; for `COc1ccc(C2CC(c3ccc(C(F)(F)F)cc3)=NN2c2ccc(S(N)(=O)=O)cc2)cc1` (configuration not stated) [4-[3-(4-methoxyphenyl)-5-[4-(trifluoromethyl)phenyl]-3,4-dihydropyrazol-2-yl]benzenesulfonamide] it is above 30 µM. The same measure, in the same setting: under `Fc1ccc(C2=NN(c3cccc(Br)c3)C(c3ccccc3)C2)cc1` (configuration not stated) [2-(3-bromophenyl)-5-(4-fluorophenyl)-3-phenyl-3,4-dihydropyrazole] stands above 30 µM.

Under setting [1], `CN(C)c1ccc(C2CC(c3ccccc3)=NN2c2ccccc2)cc1` (configuration not stated) [4-(2,5-diphenyl-3,4-dihydropyrazol-3-yl)-N,N-dimethylaniline] gave an EC50 of 0.049 µM.

For `O=S(=O)(c1ccc(N2N=C(c3ccccc3)CC2c2ccccc2)cc1)C(F)F` (configuration not stated), the EC50 was above 30 µM. With `Cc1ccc(C2CC(c3ccccc3)=NN2c2ccc(S(N)(=O)=O)cc2)cc1` (configuration not stated), the EC50 is above 30 µM. With `O=[N+]([O-])c1cccc(C2C[C-](c3ccccc3)N=[N+]2c2ccccc2)c1` (configuration not stated) [UNM-0000305857], the EC50 is above 30 µM. Same read-out and setting: the figure for `Cc1cccc(C2CC(c3ccccc3)=NN2c2ccc(S(N)(=O)=O)cc2)c1` (configuration not stated) is above 30 µM. On the same count and under the same terms, under `COc1ccc(C2CC(c3ccc(F)cc3)=NN2c2ccccc2)cc1OC` (configuration not stated) [UNM-0000305864] stands above 30 µM; under `NS(=O)(=O)c1ccc(N2N=C(c3ccccc3)CC2c2ccc(Br)cc2)cc1` (configuration not stated) [UNM-0000306160], above 30 µM. Still for that read-out and setting: under `COc1ccc(-c2cc(-c3ccccc3)nn2-c2ccc(S(N)(=O)=O)cc2)cc1` [4-[5-(4-methoxyphenyl)-3-phenylpyrazol-1-yl]benzenesulfonamide] stands above 30 µM. Consider `COc1ccc(C2CC(c3ccccc3C(F)(F)F)=NN2c2ccc(S(N)(=O)=O)cc2)cc1` (configuration not stated) [KUC103474N], for which the EC50 was above 30 µM.

As for `COc1ccc(C2CC(c3cccc(C(F)(F)F)c3)=NN2c2ccc(S(N)(=O)=O)cc2)cc1` (configuration not stated), the EC50 was above 30 µM.

Take `CN(C)c1ccc(C2CC(c3ccc(F)cc3)=NN2c2ccccc2)cc1` (configuration not stated) [UNM-0000305866]: the EC50 was above 30 µM. Still for that read-out and setting: the figure for `O=S(=O)(c1ccc(N2N=C(c3ccc(Br)cc3)CC2c2ccccc2)cc1)C(F)F` (configuration not stated) [5-(4-bromophenyl)-2-[4-(difluoromethylsulfonyl)phenyl]-3-phenyl-3,4-dihydropyrazole] is above 30 µM; for `COc1ccc(C2CC(c3ccc(Br)cc3)=NN2c2ccc(S(N)(=O)=O)cc2)cc1` (configuration not stated) [UNM-0000306138] it is above 30 µM. On the same count and under the same terms, under `Clc1cccc(N2N=C(c3ccccc3)CC2c2ccccc2)c1` (configuration not stated) stands above 30 µM. As to `Clc1ccc(N2N=C(c3ccccc3)CC2c2ccccc2)cc1` (configuration not stated), the concentration for a half-maximal effect (EC50) is above 30 µM.

As to `COc1ccc(C2=NN(c3cccc(F)c3)C(c3ccc(OC)cc3)C2)cc1` (configuration not stated) [2-(3-fluorophenyl)-3,5-bis(4-methoxyphenyl)-3,4-dihydropyrazole], the EC50 is above 30 µM.

For the compound `COc1ccc(C2CC(c3ccc(Br)cc3)=NN2c2ccccc2Cl)cc1` (configuration not stated) [UNM-0000305832], the EC50 is above 30 µM. `Cc1cccc(N2N=C(c3ccccc3)CC2c2ccccc2)c1` (configuration not stated) [UNM-0000305835] yielded an EC50 above 30 µM. With `COc1ccc(C2=NN(c3cccc(F)c3)C(c3ccc(Cl)cc3)C2)cc1` (configuration not stated) [3-(4-chlorophenyl)-2-(3-fluorophenyl)-5-(4-methoxyphenyl)-3,4-dihydropyrazole], the EC50 was above 30 µM. In turn, `O=C(O)c1ccc(N2N=C(c3ccccc3)CC2c2ccccc2)cc1` (configuration not stated) displayed a 50% effective concentration (EC50) above 30 µM. Compound `COc1ccc(C2CC(c3ccccc3)=NN2c2cccc(S(N)(=O)=O)c2)cc1` (configuration not stated) [3-[3-(4-methoxyphenyl)-5-phenyl-3,4-dihydropyrazol-2-yl]benzenesulfonamide] showed an EC50 above 30 µM. Compound `COc1ccccc1N1N=C(c2ccccc2)CC1c1ccccc1` (configuration not stated) [UNM-0000305855] yielded an EC50 above 30 µM. On the same count and under the same terms, under `FC(F)(F)c1ccccc1C1CC(c2ccc(Br)cc2)=NN1c1ccccc1` (configuration not stated) [5-(4-bromophenyl)-2-phenyl-3-[2-(trifluoromethyl)phenyl]-3,4-dihydropyrazole] stands above 30 µM.
